In assay [1] the test system is Bacillus subtilis. The experiment in a line: Antibacterial activity against Bacillus subtilis ATCC 43223. The assay is classed as functional.
Assay [2] concerns Staphylococcus aureus. The experiment in a line: Antibacterial activity against Staphylococcus aureus ATCC 29213. The assay is classed as functional.

These results are taken from ChEMBL document CHEMBL1141339, “Studies on terpenoids produced by actinomycetes: oxaloterpins A, B, C, D, and E, diterpenes from Streptomyces sp. KO-3988” (2007).

Structures are written as SMILES.

As to `C=C[C@@]1(C)CC=C2[C@@H](CC[C@@H]3C(C)(C)[C@H](OC(=O)C(=O)N(O)C(C)=O)CC[C@@]23C)C1` [OXALOTERPIN A], the results for the IC in assay [1] and in assay [2] were 1.9 nmol/mL and 3.7 nmol/mL, respectively.
